From article PMC9605497, “Potential of Epidermal Growth Factor-like Peptide from the Sea Cucumber Stichopus horrens to Increase the Growth of Human Cells: In Silico Molecular Docking Approach” (Marine Drugs, 2022)

System: EGF/PDGF pathway genes
Assay: qPCR array of EGF/PDGF pathway genes
Type: cell-based, human
Set-up: key to expression class: +: Maximum expression; −: Minimum expression; unc.: Unchanged
Details: 10 nM, 4 h; for fold change: vs serum-free medium
Procedure: Cells were seeded at 80,000 cells per well of 24-well plates in 400 µL of complete growth medium. Cells were grown in MEM basal medium supplemented with 10% FBS and 1% antibiotic–antimycotic in a humidified incubator at 37 °C, equilibrated with 5% CO2. After 24 h of culture, the medium was removed, washed once with PBS, replaced with serum-free medium and left to culture for another 16 h. Medium was removed and replaced with corresponding treatment medium each in triplicates; 10 nM and 50 nM of Sh-EGFl-1, 10 nM and 50 nM of rhEGF were used as a positive control and serum-free medium was used as a negative control. Cells were harvested after 4 h. Medium was removed and 200 μL of Trizol reagent (Thermo Scientific, Waltham, MA, USA) was immediately added.
RNA extraction was performed according to Trizol reagent manufacturer’s protocol. An elution volume of 15 μL RNase-free water was added before the concentration and purity were determined using NanoDrop.
A total of 100 ng RNA was used initially for the cDNA synthesis reaction. The reaction was carried out according to RT^2 First Strand Kit’s protocol (Qiagen, Venlo, Netherlands). Genomic DNA was removed according to the manufacturer’s protocol prior to cDNA strand generation.
The 10 μL cDNA of human skin cells was diluted with 91 μL prior to qPCR reaction. Primer pairs of 84 genes involved in the EGF pathway, five housekeeping genes such as ribosomal protein large, P0 (RPL0), glyceraldehyde-3-phosphate-dehydrogenase (GAPDH), beta-actin (ACTB), beta-2-microglobulin (B2M) and hypoxanthine phosphoribosyltransferase 1 (HPRT1), one positive control gene for genomic DNA contamination, three reverse transcription control genes and three PCR-positive controls were included in the Qiagen PAHS-040ZA qPCR array plate (Qiagen, Venlo, Netherlands). A list of all genes analyzed in this study is available in Supplementary Materials Table S7. The mixture reaction was prepared according to the protocol and run using BioRad CFX96TM. Samples of 10 nM rhEGF and 10 nM Sh-EGFl-1 were prepared in duplicates. The following thermal profile was applied: 1 cycle at 95 °C for 10 min, 40 cycles at 95 °C for 15 s, 60 °C for 1 min, with the ramp rate from 95 °C to 60 °C was set at 1 °C every second. The data were then analyzed through Qiagen web portal. Data for serum-free medium were selected as a control group and the differences in gene expression between control and treatment groups were calculated using the 2^(−delta delta CT) method. The difference, known as fold change, was obtained from the delta delta CT values, which are the genes of interest and the average housekeeping genes, followed by the delta delta CT (delta CT (treatment group)—delta CT (control group)).

[1] = IKBKB (IKK), PLC gamma signaling
[2] = PLCG1 (PLC), PLC gamma signaling
[3] = PPP2CA (TSC2), PLC gamma signaling
[4] = RASA1 (p120GAP), MAPK signaling
[5] = RPS6KA5 (p70S6K), MAPK signaling
[6] = RPS6KA5 (p70S6K), PI3K signaling
[7] = RPS6KA5 (p70S6K), PLC gamma signaling
[8] = RPS6KB1 (p70S6K), MAPK signaling
[9] = RPS6KB1 (p70S6K), PI3K signaling
[10] = RPS6KB1 (p70S6K), PLC gamma signaling

H-MNSDSECPLSHDGYCLHDGVCMYIEALDKYACNCVVGYIGERCQYRDLKWWELR-OH (disulfide) [rhEGF, Recombinant human EGF purchased from Thermo Scientific, reference compound]
(1.24): fold change (E1F4E, PI3K signaling) | fold change (MAPK10, MAPK signaling)
(0.90): fold change (NFKB, PI3K signaling) | fold change (NFKB, PLC gamma signaling)
(0.83): fold change (CCND1, PI3K signaling) | fold change [4]
+: expression class (E1F4E, PI3K signaling) | expression class (GAB1, PI3K signaling) | expression class (MAP2K7 (MKK7), MAPK signaling) | expression class (MAPK10, MAPK signaling) | expression class (SRC, JAK-STAT signaling)
(0.89): fold change [2] | fold change (STAT3, JAK-STAT signaling) | fold change (STAT5, JAK-STAT signaling)
(0.68): fold change [8] | fold change [9] | fold change [10]
(1.16): fold change (SRC, JAK-STAT signaling)
(0.74): fold change (DUSP6, MAPK signaling) | fold change (MAP2K1 (MEK1), MAPK signaling)
(0.63): fold change (CASP9, MAPK signaling)
(0.77): fold change (ELK1, JAK-STAT signaling) | fold change (JAK1, JAK-STAT signaling)
(0.54): fold change (MAPK9, MAPK signaling) | fold change (MKNK1, MAPK signaling)
(0.67): fold change (ATF2, MAPK signaling)
(0.62): fold change (HRAS, MAPK signaling)
unc.: expression class (JUN, JAK-STAT signaling) | expression class [5] | expression class [6] | expression class [7] | expression class (TP53, MAPK signaling) | expression class (TP53, PI3K signaling)
(1.02): fold change (FOS, JAK-STAT signaling)
opposite gene expression profile: gene expression profile, EGF/PDGF pathway (qPCR array heat map)
(0.51): fold change (MAP2K4 (MKK4), MAPK signaling)
(0.76): fold change (GRB2, PI3K signaling) | fold change (MAPK1 (ERK2), MAPK signaling)
(0.70): fold change (CASP3, MAPK signaling)
(0.50): fold change (DUSP1, MAPK signaling)
(0.80): fold change (PIK3R1, PI3K signaling) | fold change (RAP1A, MAPK signaling) | fold change (SHC1, MAPK signaling)
(0.82): fold change (MAP3K2 (MEKK2), MAPK signaling) | fold change (TP53, MAPK signaling) | fold change (TP53, PI3K signaling)
(0.79): fold change (MAPK3 (ERK1), MAPK signaling)
(0.95): fold change (MAP2K7 (MKK7), MAPK signaling)
(1.08): fold change (P13KCA, PI3K signaling)
(0.96): fold change (CBL, MAPK signaling) | fold change (NFATC3, MAPK signaling)
(0.88): fold change (GAB1, PI3K signaling)
(0.84): fold change (GSK3B, PI3K signaling) | fold change (RHOA, Rho signaling)
(0.98): fold change (JUN, JAK-STAT signaling)
−: expression class (AKT1, PI3K signaling) | expression class (AKT3, PI3K signaling) | expression class (ATF1, MAPK signaling) | expression class (ATF2, MAPK signaling) | expression class (CASP3, MAPK signaling) | expression class (CASP9, MAPK signaling) | expression class (CBL, MAPK signaling) | expression class (CCND1, PI3K signaling) | expression class (DUSP1, MAPK signaling) | expression class (DUSP6, MAPK signaling) | expression class (ELK1, JAK-STAT signaling) | expression class (FOS, JAK-STAT signaling) | expression class (GRB2, PI3K signaling) | expression class (GSK3A, PI3K signaling) | expression class (GSK3B, PI3K signaling) | expression class (HRAS, MAPK signaling) | expression class (IKBKB (IKK), PI3K signaling) | expression class [1] | expression class (IKBKB, MAPK signaling) | expression class (JAK1, JAK-STAT signaling) | expression class (MAP2K1 (MEK1), MAPK signaling) | expression class (MAP2K4 (MKK4), MAPK signaling) | expression class (MAP3K2 (MEKK2), MAPK signaling) | expression class (MAPK1 (ERK2), MAPK signaling) | expression class (MAPK3 (ERK1), MAPK signaling) | expression class (MAPK8, MAPK signaling) | expression class (MAPK9, MAPK signaling) | expression class (MKNK1, MAPK signaling) | expression class (NFATC3, MAPK signaling) | expression class (NFKB, PI3K signaling) | expression class (NFKB, PLC gamma signaling) | expression class (P13KCA, PI3K signaling) | expression class (PDPK1 (PDK1), PI3K signaling) | expression class (PIK3R1, PI3K signaling) | expression class (PIK3R2, PI3K signaling) | expression class [2] | expression class [3] | expression class (PRKCA, PLC gamma signaling) | expression class (RAP1A, MAPK signaling) | expression class [4] | expression class (RHOA, Rho signaling) | expression class [8] | expression class [9] | expression class [10] | expression class (SHC1, MAPK signaling) | expression class (SHC1, PI3K signaling) | expression class (STAT3, JAK-STAT signaling) | expression class (STAT5, JAK-STAT signaling)
(0.78): fold change (PRKCA, PLC gamma signaling)
(0.73): fold change (IKBKB (IKK), PI3K signaling) | fold change [1] | fold change (IKBKB, MAPK signaling) | fold change (MAPK8, MAPK signaling)
(0.86): fold change (PDPK1 (PDK1), PI3K signaling)
(0.75): fold change (GSK3A, PI3K signaling) | fold change (PIK3R2, PI3K signaling) | fold change [5] | fold change [6] | fold change [7]
(0.87): fold change (AKT3, PI3K signaling) | fold change (ATF1, MAPK signaling)
(0.69): fold change (AKT1, PI3K signaling) | fold change [3]
